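Growth conditions: 96-well plates. Treatment: test compound, 48 hours, 5 concentrations. Analysis: linear interpolation between bracketing concentrations; unreached endpoints set to highest concentration. GI50 = concentration required for 50% inhibition of growth.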 Active and inactive are the calls of the source. Cut-off read from the data, not from the text of the source: active = GI50 up to about 1.1 µM and inactive = higher.
Key:
Assay in all cases: NCI-60 cell line screen, 48 h
CCRF-CEM = tested on: CCRF-CEM
HL-60 = tested on: HL-60
SK-OV-3 = tested on: SK-OV-3
ACHN = tested on: ACHN
UACC-257 = tested on: UACC-257
NCI-H226 = tested on: NCI-H226
IGROV-1 = tested on: IGROV-1
SF-268 = tested on: SF-268
OVCAR-3 = tested on: OVCAR-3
A549 = tested on: A549
MCF7 = tested on: MCF7
T47D = tested on: T47D
786-0 = tested on: 786-0
M14 = tested on: M14
MDA-N = tested on: MDA-N
SF-295 = tested on: SF-295
LOX IMVI = tested on: LOX IMVI
NCI/ADR-RES = tested on: NCI/ADR-RES
Malme-3M = tested on: Malme-3M
DU-145 = tested on: DU-145

Structure (SMILES) | GI50 (CCRF-CEM) | GI50 (HL-60) | GI50 (SK-OV-3) | GI50 (ACHN) | GI50 (UACC-257) | GI50 (NCI-H226) | GI50 (IGROV-1) | GI50 (SF-268) | GI50 (OVCAR-3) | GI50 (A549) | GI50 (MCF7) | GI50 (T47D) | GI50 (786-0) | GI50 (M14) | GI50 (MDA-N) | GI50 (SF-295) | GI50 (LOX IMVI) | GI50 (NCI/ADR-RES) | GI50 (Malme-3M) | GI50 (DU-145)
O=C(O)c1cc2ccc3ccccc3c2oc1=O | > 100 µM (inactive) | > 100 µM (inactive) | > 100 µM (inactive) | > 100 µM (inactive) | > 100 µM (inactive) | > 100 µM (inactive) | > 100 µM (inactive) | > 100 µM (inactive) | > 100 µM (inactive) | > 100 µM (inactive) | > 100 µM (inactive) | > 100 µM (inactive) | > 100 µM (inactive) | > 100 µM (inactive) | > 100 µM (inactive) | > 100 µM (inactive) | > 100 µM (inactive) | > 100 µM (inactive) | > 100 µM (inactive) | –
CC(C)C1N(C)c2ccc(Cl)cc2[C@H]2c3ccccc3CCN12 (some centres undefined) | 97.9 µM (inactive) | 27.7 µM (inactive) | > 100 µM (inactive) | 82.2 µM (inactive) | 30.4 µM (inactive) | 14.3 µM (inactive) | 23.4 µM (inactive) | > 100 µM (inactive) | 27.2 µM (inactive) | 39 µM (inactive) | 30.7 µM (inactive) | – | > 100 µM (inactive) | 55.1 µM (inactive) | 26.1 µM (inactive) | 18.2 µM (inactive) | 31.6 µM (inactive) | > 100 µM (inactive) | – | 53.5 µM (inactive)
Nc1ccc2c3c1cccc3c(=O)n1c3ccc(Cc4ccc5c(c4)nc4c6ccc(N)c7cccc(c(=O)n54)c76)cc3nc21 | > 100 µM (inactive) | > 100 µM (inactive) | > 100 µM (inactive) | > 100 µM (inactive) | > 100 µM (inactive) | > 100 µM (inactive) | > 100 µM (inactive) | – | > 100 µM (inactive) | > 100 µM (inactive) | > 100 µM (inactive) | – | > 100 µM (inactive) | > 100 µM (inactive) | > 100 µM (inactive) | > 100 µM (inactive) | > 100 µM (inactive) | > 100 µM (inactive) | > 100 µM (inactive) | > 100 µM (inactive)
CC1(C)C(CCO)CC1n1ccc(=O)[nH]c1=O (centres undefined) | > 100 µM (inactive) | – | > 100 µM (inactive) | > 100 µM (inactive) | > 100 µM (inactive) | > 100 µM (inactive) | – | > 100 µM (inactive) | > 100 µM (inactive) | > 100 µM (inactive) | > 100 µM (inactive) | > 100 µM (inactive) | > 100 µM (inactive) | > 100 µM (inactive) | > 100 µM (inactive) | > 100 µM (inactive) | > 100 µM (inactive) | > 100 µM (inactive) | – | > 100 µM (inactive)
COC(=O)C1=C(C(=O)OC)C(C(=O)c2ccc(Br)cc2)N2N=C(c3ccc(Cl)cc3)C=CC12 (centres undefined) | > 100 µM (inactive) | > 100 µM (inactive) | > 100 µM (inactive) | > 100 µM (inactive) | > 100 µM (inactive) | > 100 µM (inactive) | > 100 µM (inactive) | 69.7 µM (inactive) | > 100 µM (inactive) | 98.2 µM (inactive) | 82.8 µM (inactive) | – | > 100 µM (inactive) | > 100 µM (inactive) | > 100 µM (inactive) | 67 µM (inactive) | > 100 µM (inactive) | > 100 µM (inactive) | > 100 µM (inactive) | > 100 µM (inactive)
CC(=O)NC(CC(C)C)C(=O)NC(CC(C)C)C(=O)NC(C=O)CCCNC(=N)N (centres undefined) | > 100 µM (inactive) | – | > 100 µM (inactive) | > 100 µM (inactive) | > 100 µM (inactive) | 42.3 µM (inactive) | > 100 µM (inactive) | > 100 µM (inactive) | > 100 µM (inactive) | > 100 µM (inactive) | > 100 µM (inactive) | – | > 100 µM (inactive) | > 100 µM (inactive) | > 100 µM (inactive) | > 100 µM (inactive) | > 100 µM (inactive) | > 100 µM (inactive) | 72.6 µM (inactive) | > 100 µM (inactive)
C[C@H](c1ccccc1)N1C(=O)[C@@H](O)[C@H]1[C@H](CO)OCc1ccccc1 | > 100 µM (inactive) | – | > 100 µM (inactive) | > 100 µM (inactive) | > 100 µM (inactive) | > 100 µM (inactive) | > 100 µM (inactive) | > 100 µM (inactive) | > 100 µM (inactive) | > 100 µM (inactive) | > 100 µM (inactive) | – | > 100 µM (inactive) | > 100 µM (inactive) | > 100 µM (inactive) | 95.3 µM (inactive) | > 100 µM (inactive) | > 100 µM (inactive) | > 100 µM (inactive) | > 100 µM (inactive)
Cc1cccc2c1Oc1ccccc1C2NC(=O)c1ccc([N+](=O)[O-])cc1 (centres undefined) | > 100 µM (inactive) | > 100 µM (inactive) | – | > 100 µM (inactive) | > 100 µM (inactive) | 15.6 µM (inactive) | > 100 µM (inactive) | 95.3 µM (inactive) | 99.3 µM (inactive) | > 100 µM (inactive) | – | > 100 µM (inactive) | > 100 µM (inactive) | > 100 µM (inactive) | > 100 µM (inactive) | > 100 µM (inactive) | > 100 µM (inactive) | 79.4 µM (inactive) | 86.7 µM (inactive) | 21 µM (inactive)
N#Cc1c(-c2ccc(Cl)cc2)c2c([nH]c1=O)-c1ccccc1SC2 | 26.3 µM (inactive) | 21 µM (inactive) | 32.7 µM (inactive) | – | > 100 µM (inactive) | 38.6 µM (inactive) | 56.9 µM (inactive) | 41.9 µM (inactive) | 26.2 µM (inactive) | 30.3 µM (inactive) | 27.5 µM (inactive) | – | 39.8 µM (inactive) | > 100 µM (inactive) | 77.6 µM (inactive) | 28 µM (inactive) | 22 µM (inactive) | 29.2 µM (inactive) | 33.1 µM (inactive) | > 100 µM (inactive)
c1cncc(-c2ncc3cccnc3n2)c1 | > 100 µM (inactive) | > 100 µM (inactive) | > 100 µM (inactive) | > 100 µM (inactive) | > 100 µM (inactive) | > 100 µM (inactive) | > 100 µM (inactive) | – | > 100 µM (inactive) | > 100 µM (inactive) | > 100 µM (inactive) | – | > 100 µM (inactive) | – | > 100 µM (inactive) | > 100 µM (inactive) | > 100 µM (inactive) | > 100 µM (inactive) | > 100 µM (inactive) | 43.4 µM (inactive)
Cc1cn([C@H]2CN(O)C[C@@H](CO)O2)c(=O)[nH]c1=O | – | > 100 µM (inactive) | > 100 µM (inactive) | > 100 µM (inactive) | > 100 µM (inactive) | > 100 µM (inactive) | > 100 µM (inactive) | > 100 µM (inactive) | – | > 100 µM (inactive) | > 100 µM (inactive) | > 100 µM (inactive) | > 100 µM (inactive) | > 100 µM (inactive) | > 100 µM (inactive) | > 100 µM (inactive) | – | – | – | > 100 µM (inactive)
SC[C@@H]1COC[C@H](CS)S1 | > 100 µM (inactive) | > 100 µM (inactive) | > 100 µM (inactive) | – | > 100 µM (inactive) | – | > 100 µM (inactive) | > 100 µM (inactive) | > 100 µM (inactive) | > 100 µM (inactive) | > 100 µM (inactive) | > 100 µM (inactive) | > 100 µM (inactive) | > 100 µM (inactive) | > 100 µM (inactive) | > 100 µM (inactive) | > 100 µM (inactive) | – | – | > 100 µM (inactive)
CC(C)(C)C1CCC2c3c([nH]c4ccccc34)C3C(=O)N(c4cc(Br)cc(Br)c4)C(=O)C3C2C1 (centres undefined) | 5.79 µM (inactive) | 2.55 µM (inactive) | 61.1 µM (inactive) | 20 µM (inactive) | > 100 µM (inactive) | 21.9 µM (inactive) | 70.3 µM (inactive) | – | > 10 µM (inactive) | 14.8 µM (inactive) | 3.2 µM (inactive) | – | 6.95 µM (inactive) | 25.4 µM (inactive) | 31.9 µM (inactive) | – | 27.2 µM (inactive) | 14.6 µM (inactive) | 57.9 µM (inactive) | 21.4 µM (inactive)
CCOC(=O)[C@@H]1ON2O[C@H](OC3CCCCC3c3ccccc3)C[C@H]3OC(=O)[C@@H]1C32 (some centres undefined) | 0.209 µM (active) | – | > 100 µM (inactive) | > 100 µM (inactive) | > 100 µM (inactive) | > 100 µM (inactive) | > 100 µM (inactive) | > 100 µM (inactive) | > 100 µM (inactive) | > 100 µM (inactive) | > 100 µM (inactive) | > 100 µM (inactive) | > 100 µM (inactive) | > 100 µM (inactive) | > 100 µM (inactive) | > 100 µM (inactive) | > 100 µM (inactive) | > 100 µM (inactive) | – | > 100 µM (inactive)
COC(=O)c1csc(-c2csc(CCNC(=O)OC(C)(C)C)n2)n1 | 43.5 µM (inactive) | > 100 µM (inactive) | > 100 µM (inactive) | > 100 µM (inactive) | > 100 µM (inactive) | > 100 µM (inactive) | > 100 µM (inactive) | > 100 µM (inactive) | > 100 µM (inactive) | > 100 µM (inactive) | > 100 µM (inactive) | – | > 100 µM (inactive) | > 100 µM (inactive) | > 100 µM (inactive) | > 100 µM (inactive) | – | 54.3 µM (inactive) | > 100 µM (inactive) | > 100 µM (inactive)

Source: ChEMBL document CHEMBL1201862, “PubChem BioAssay data set” (2004)
